Reference: patent US9938525B2, “Compositions and methods for selective delivery of oligonucleotide molecules to cell types” (nLife Therapeutics, S.L., priority 2012, dated 2018)
pIC50: −log10 of the molar value.

Columns and labels:
[1] = molecular target: T1, human 5HT1A receptor (Homo sapiens, UniProt P08908); experiment: Binding to 5HT1A: displacement of 3H-8-OH-DPAT in CHO cells overexpressing human 5HT1A receptor
T1 construct: expressed in transfected cells; host or cells: CHO
T1 sequence (P08908 1-422): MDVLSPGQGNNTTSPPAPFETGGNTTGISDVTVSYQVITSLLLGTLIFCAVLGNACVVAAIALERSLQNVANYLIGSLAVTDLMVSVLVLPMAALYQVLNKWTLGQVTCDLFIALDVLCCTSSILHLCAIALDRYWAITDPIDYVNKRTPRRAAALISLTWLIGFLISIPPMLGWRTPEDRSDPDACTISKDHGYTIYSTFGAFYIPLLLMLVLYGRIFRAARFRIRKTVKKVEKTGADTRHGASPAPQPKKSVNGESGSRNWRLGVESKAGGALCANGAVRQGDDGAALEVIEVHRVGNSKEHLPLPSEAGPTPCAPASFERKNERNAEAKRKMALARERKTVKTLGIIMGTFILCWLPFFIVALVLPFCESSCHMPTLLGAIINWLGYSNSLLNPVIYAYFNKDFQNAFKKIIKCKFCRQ
Protocol: 10 ug of protein per well preincubated 15 min and incubated 60 min RT.

[2] = molecular target: T2, 5HT3 (Homo sapiens, UniProt P46098); experiment: Binding to 5HT3: displacement of 3H-GR65630 in HEK-5HT3; conditions: displacement of 3H-GR65630 (0.5 nM), HEK-5HT3, 3 ug of protein per well
T2 construct: expressed in transfected cells; host or cells: HEK (HEK-5HT3)
T2 sequence (P46098 24-478): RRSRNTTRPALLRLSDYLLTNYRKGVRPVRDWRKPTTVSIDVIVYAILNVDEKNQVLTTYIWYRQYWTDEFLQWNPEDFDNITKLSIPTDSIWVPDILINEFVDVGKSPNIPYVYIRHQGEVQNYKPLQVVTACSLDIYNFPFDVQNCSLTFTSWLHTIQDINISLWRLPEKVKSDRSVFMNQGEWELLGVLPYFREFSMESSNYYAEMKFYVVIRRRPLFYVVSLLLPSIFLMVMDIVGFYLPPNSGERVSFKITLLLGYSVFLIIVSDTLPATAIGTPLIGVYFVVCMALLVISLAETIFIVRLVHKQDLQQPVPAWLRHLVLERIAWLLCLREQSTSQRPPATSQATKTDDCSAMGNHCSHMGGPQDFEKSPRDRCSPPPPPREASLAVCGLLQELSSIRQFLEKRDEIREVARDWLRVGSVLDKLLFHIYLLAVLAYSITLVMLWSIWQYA
Protocol: FIG. 6. Binding of 1319 to 5HT3. Displacement of 3H-GR65630 (0.5 nM). Data are presented as mean±SD, n=4 from one experiment. Kd of GR65630 was determined from a saturation assay.
Displacement of 3H-GR65630 (0.5 nM) with increasing concentrations of 1319 (from 0.1 nM to 10 uM), Lerisetron-C6-acyl and not derivatized Lerisetron (from 0.1 nM to 30 uM), in HEK-5HT3: 3 ug of protein per well is shown in Table 11.

[3] = test system: Ataxin-I mRNA; experiment: Knockdown of Ataxin I in Purkinje cells of the cerebellum (in situ hybridization, optical density); assay type: in vivo, mouse; conditions: C57/B16 mice, intranasal 4 mg/kg/day for four consecutive days, 24 hours after last administration; ± s.e.m.
Excerpt: FIG. 5. Microphotographs of sagittal cerebellum sections labeled with a probe for Ataxin-1. A) and B) Arrows indicate the Purkinje cells layer, ML: molecular layer, GL: granular layer. A: example of animal treated with PBS, B: example of animal treated with 5-nonyloxytryptamine oxalate conjugated to a siRNA against mRNA for Ataxin-I (NP-1297). C: Quantification of optical density (ImageJ) in the Purkinje cells layer in arbitrary units (O.D. (a.u.)) normalized against PBS showing a significant decrease (48%±5 s.e.m.) in animals treated with NP-1297 (t test, *p<0.02).
5-HT1B receptors are expressed in the Purkinje cells of the cerebellum and using the agonist 5-nonyloxytryptamine oxalate for these receptors, conjugated to a siRNA against mRNA for Ataxin-I, we knockdown this protein only in Purkinje cells. Ataxin-1-siRNA sequence (Lee et al., Nat Neurosci 11, 1137-1139 (2008))
For this, five C57/B16 wild type mice were intranasally administered with the conjugated molecule at a concentration of 4 mg/kg/day for four consecutive days and five animals of the same strain were treated with PBS as a control; 24 hours after last administration animals were sacrificed and the brain was processed for in situ hybridization with colorimetric detection. A probe 45 nucleotides long complementary to mouse Ataxin-I mRNA and labeled with digoxigenin at both ends (5′ and 3′) was used. […]

Molecule: Nc1ccc(CCN2CCN(c3cccc(C(F)(F)F)c3)CC2)cc1 [LY-165,163, 1-[2-(4-aminophenyl)ethyl]-4-(3-trifluoromethylphenyl)-piperazine]
- pIC50 [1]: 8.96

Molecule: c1ccc(Cn2c(N3CCNCC3)nc3ccccc32)cc1 [Lerisetron, 1-benzyl-2-piperazin-1-yl-1H-benzimidazole]
- IC50 [2]: 7 nM

Molecule: NP-1297: 5-nonyloxytryptamine oxalate conjugated to a siRNA against mRNA for Ataxin-I (SEQ ID NO: 9/10) (chain 1 GAUCUAACGUGGGCAAGUATT; chain 2 UACUUGCCCACGUUAGAUCTT; 5-nonyloxytryptamine conjugated, attachment position not given here)
- Decrease of optical density (Ataxin-1 probe) in the Purkinje cells layer normalized against PBS [3]: 48%±5
